In ChEMBL document CHEMBL4138061, “Structure-activity relationships for the synthesis of selective cyclooxygenase 2 inhibitors: an overview (2009-2016)” (Medchemcomm, 2017):
Each block holds one compound with its values, some of them ahead of it.

Tests used:
[1] = target: T1, Prostaglandin G/H synthase 1 (Ovis aries, UniProt P05979); assay: Inhibition of ovine COX1 using arachidonic acid substrate by TMPD dye based colorimetry
T1 sequence (P05979 whole entry): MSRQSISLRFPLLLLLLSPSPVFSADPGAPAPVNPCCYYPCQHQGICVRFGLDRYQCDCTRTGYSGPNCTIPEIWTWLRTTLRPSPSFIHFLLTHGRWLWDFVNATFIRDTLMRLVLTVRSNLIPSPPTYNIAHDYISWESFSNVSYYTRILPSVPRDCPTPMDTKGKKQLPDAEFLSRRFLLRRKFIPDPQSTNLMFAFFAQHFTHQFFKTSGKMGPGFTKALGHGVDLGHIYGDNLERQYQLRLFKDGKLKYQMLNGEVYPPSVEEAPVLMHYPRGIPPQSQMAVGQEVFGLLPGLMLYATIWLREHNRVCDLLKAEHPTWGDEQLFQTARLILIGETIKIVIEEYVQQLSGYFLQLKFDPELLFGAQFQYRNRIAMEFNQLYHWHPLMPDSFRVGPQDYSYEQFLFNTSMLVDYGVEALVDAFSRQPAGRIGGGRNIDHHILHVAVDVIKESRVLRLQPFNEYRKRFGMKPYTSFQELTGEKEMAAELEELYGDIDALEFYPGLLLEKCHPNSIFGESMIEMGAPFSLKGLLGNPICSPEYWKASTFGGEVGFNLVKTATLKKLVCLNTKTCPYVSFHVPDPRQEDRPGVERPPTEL

Ovis aries = organism: Ovis aries; assay: Selectivity index, ratio of IC50 for ovine COX1 to IC50 for ovine COX2
[2] = target: T2, Prostaglandin G/H synthase 1 (Ovis aries) (UniProt P05979); assay: Inhibition of ovine COX1 at 10 ug/ml using arachidonic acid substrate by TMPD dye based colorimetry
T2 sequence (whole entry): T1 sequence (P05979 whole entry)

[3] = target: T3, Prostaglandin G/H synthase 2 (Ovis aries) (UniProt P79208); details: 10 ug/ml
T3 sequence (whole entry): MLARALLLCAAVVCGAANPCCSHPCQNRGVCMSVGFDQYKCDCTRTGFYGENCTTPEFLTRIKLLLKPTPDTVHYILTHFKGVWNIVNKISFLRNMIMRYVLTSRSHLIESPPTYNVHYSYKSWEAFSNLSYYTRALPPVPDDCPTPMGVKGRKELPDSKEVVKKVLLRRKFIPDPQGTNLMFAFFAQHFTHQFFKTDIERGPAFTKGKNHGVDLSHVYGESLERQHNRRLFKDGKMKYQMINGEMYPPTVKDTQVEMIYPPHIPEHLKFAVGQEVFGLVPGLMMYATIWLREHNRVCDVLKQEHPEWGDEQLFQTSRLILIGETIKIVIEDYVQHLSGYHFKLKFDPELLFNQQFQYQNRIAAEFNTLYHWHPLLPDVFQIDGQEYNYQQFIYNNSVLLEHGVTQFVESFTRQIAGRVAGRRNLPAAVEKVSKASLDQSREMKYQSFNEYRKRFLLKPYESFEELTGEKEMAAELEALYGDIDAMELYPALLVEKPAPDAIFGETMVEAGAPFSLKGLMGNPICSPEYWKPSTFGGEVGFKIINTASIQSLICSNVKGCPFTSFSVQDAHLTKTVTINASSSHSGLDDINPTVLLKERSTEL
Description: Inhibition of ovine COX2 at 10 ug/ml using arachidonic acid substrate by TMPD dye based colorimetry

[4] = target: T4, Prostaglandin G/H synthase 2 (Homo sapiens, UniProt P35354); assay: Inhibition of human recombinant COX2 by enzyme immuno assay
T4 sequence (P35354 whole entry): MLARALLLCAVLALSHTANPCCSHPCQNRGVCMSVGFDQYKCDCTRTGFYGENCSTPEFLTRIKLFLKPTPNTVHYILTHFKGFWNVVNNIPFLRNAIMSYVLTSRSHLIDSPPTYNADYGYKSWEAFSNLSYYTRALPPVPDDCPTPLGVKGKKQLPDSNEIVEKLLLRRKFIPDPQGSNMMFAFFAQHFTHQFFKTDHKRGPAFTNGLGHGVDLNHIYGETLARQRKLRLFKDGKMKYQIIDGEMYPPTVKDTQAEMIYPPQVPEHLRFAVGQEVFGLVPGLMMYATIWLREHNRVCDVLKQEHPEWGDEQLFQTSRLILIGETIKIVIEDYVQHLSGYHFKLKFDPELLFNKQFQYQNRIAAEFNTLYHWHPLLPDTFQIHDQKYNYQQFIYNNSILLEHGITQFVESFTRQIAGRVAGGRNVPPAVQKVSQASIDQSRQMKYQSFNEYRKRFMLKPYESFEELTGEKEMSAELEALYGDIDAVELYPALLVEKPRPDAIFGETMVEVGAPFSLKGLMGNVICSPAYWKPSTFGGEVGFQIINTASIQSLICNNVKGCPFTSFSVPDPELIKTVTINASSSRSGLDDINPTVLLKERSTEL

[5] = Selectivity index, ratio of IC50 for ovine COX1 to IC50 for human COX2
[6] = target: T1, Prostaglandin G/H synthase 1; assay: Inhibition of ovine COX1 by enzyme chemiluminescence assay
[7] = target: T5, Prostaglandin G/H synthase 2 (Ovis aries, UniProt P79208); assay: Inhibition of ovine COX2 by enzyme chemiluminescence assay
T5 sequence (P79208 whole entry): T3 sequence (whole entry)

[8] = target: T1, Prostaglandin G/H synthase 1; assay: Inhibition of ovine COX1 by fluorescence based assay
[9] = target: T4, Prostaglandin G/H synthase 2; assay: Inhibition of human COX2 by fluorescence based assay
[10] = target: T4, Prostaglandin G/H synthase 2; assay: Inhibition of COX2 (unknown origin)
[11] = target: T6, Prostaglandin G/H synthase 1 (Homo sapiens, UniProt P23219); assay: Inhibition of COX1 (unknown origin)
T6 sequence (P23219 whole entry): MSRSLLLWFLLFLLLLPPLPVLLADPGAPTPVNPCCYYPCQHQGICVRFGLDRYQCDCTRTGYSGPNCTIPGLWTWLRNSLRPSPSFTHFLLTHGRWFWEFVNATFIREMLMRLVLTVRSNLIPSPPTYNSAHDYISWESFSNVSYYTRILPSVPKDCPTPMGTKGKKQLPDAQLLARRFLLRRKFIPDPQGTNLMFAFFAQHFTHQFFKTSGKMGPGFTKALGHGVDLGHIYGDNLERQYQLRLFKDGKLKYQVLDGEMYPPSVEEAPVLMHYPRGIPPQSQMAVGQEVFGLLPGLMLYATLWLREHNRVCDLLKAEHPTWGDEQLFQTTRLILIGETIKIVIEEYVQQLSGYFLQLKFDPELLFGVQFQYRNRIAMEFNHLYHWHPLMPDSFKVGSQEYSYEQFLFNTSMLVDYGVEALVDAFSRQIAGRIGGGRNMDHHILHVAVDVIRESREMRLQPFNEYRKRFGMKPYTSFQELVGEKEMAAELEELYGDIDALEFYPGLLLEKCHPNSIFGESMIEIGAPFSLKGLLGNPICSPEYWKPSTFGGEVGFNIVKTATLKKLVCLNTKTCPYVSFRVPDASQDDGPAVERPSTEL

Homo sapiens [12] = organism: Homo sapiens; assay: Selectivity index, ratio of IC50 for COX1 (unknown origin) to IC50 for COX2 (unknown origin)
[13] = target: T4, Prostaglandin G/H synthase 2; assay: Inhibition of human COX2 assessed as reduction in PGE2 production incubated for 2 mins using arachidonic acid substrate by enzyme immuno assay
[14] = target: T6, Prostaglandin G/H synthase 1; assay: Inhibition of human COX1 assessed as reduction in PGE2 production incubated for 2 mins using arachidonic acid substrate by enzyme immuno assay
Homo sapiens [15] = organism: Homo sapiens; assay: Selectivity index, ratio of IC50 for human COX1 to IC50 for human COX2
[16] = target: T4, Prostaglandin G/H synthase 2; assay: Inhibition of COX2 in human lympho-monocytes suspension assessed as reduction in LPS-induced PGE2 production pre-incubated for 30 mins before LPS stimulation for 24 hrs by EIA method; type: cell-based
[17] = target: T4, Prostaglandin G/H synthase 2; assay: Inhibition of human recombinant COX2 assessed as reduction in […] production incubated for 10 mins using arachidonic acid substrate by enzyme immuno assay
[18] = target: T1, Prostaglandin G/H synthase 1; assay: Inhibition of ovine recombinant COX1 by enzyme immuno assay

IC50 [1]: 63800 nM
Ratio IC50 (Ovis aries): 133
inhibition [2]: 3.92%
inhibition [3]: 76%
SMILES: Cc1cc(C)c2c(n1)nn1c(/C=C/c3ccc([N+](=O)[O-])cc3)c(C)[nH]c21

IC50 [4]: 970 nM
Ratio IC50 [5]: 6.08
SMILES: CS(=O)(=O)c1ccc(-n2nc(-c3ccc(O)cc3)cc2-c2ccc(C(F)(F)F)cc2)cc1

IC50 [1]: > 50000 nM
SMILES: Cc1ccc(-c2nn(Cc3nnc(-c4ccccc4[N+](=O)[O-])o3)c(=O)c3ccccc23)cc1C

Ratio IC50 (Ovis aries): 548
IC50 [6]: 34500 nM
IC50 [7]: 63 nM
SMILES: CS(=O)(=O)c1ccc(-c2cc(Cn3ccnc3)c3ccc4c(c3n2)CCCC4)cc1

IC50 [8]: > 100000 nM
IC50 [9]: 20 nM
Ratio IC50 [5]: > 5000
SMILES: Cc1ccc(-c2c(-c3ccc(S(C)(=O)=O)cc3)c3cccc4ccn2c43)cc1

IC50 [10]: 90 nM
IC50 [11]: 10500 nM
Ratio IC50 (Homo sapiens [12]): 116
SMILES: CS(=O)(=O)c1ccc(C2C(c3ccccc3)=NOC23COc2ccccc2C3=O)cc1 (stereo not given)

IC50 [13]: 80 nM
IC50 [14]: 36100 nM
Ratio IC50 (Homo sapiens [15]): 451
SMILES: NS(=O)(=O)c1ccc(N2N=C(c3ccc(N4CCOCC4)cc3)CC2c2ccc(F)cc2F)cc1 (stereo not given)

IC50 [16]: 14 nM
SMILES: Cc1ccc(Nc2c(F)cccc2Cl)c(Cc2nnn[nH]2)c1

Ratio IC50 [5]: 133
IC50 [17]: 480 nM
SMILES: CS(=O)(=O)c1ccc(C2NN=C(c3ccc([N+](=O)[O-])cc3)O2)cc1 (stereo not given)

IC50 [4]: 970 nM
Ratio IC50 [5]: 5.77
IC50 [18]: 5600 nM
SMILES: CCOc1ccc(-c2cc(-c3ccc(C(F)(F)F)cc3)n(-c3ccc(S(C)(=O)=O)cc3)n2)cc1
